Legend:
Aphis craccivoral = test: Insecticidal activity against Aphis craccivoral by immersing (dipping aphids on bean sprout); assay type: in vivo; settings: for mortality (%) (500 ppm) Aphis: immersing (dipped 5 seconds), counted after 24 hours, 23° C.; for mortality at 500 ppm: Aphis, 24 h, read-out: mortality (%) (500 ppm) Aphis
Experimental: (§1) Test on the insecticidal activity of Compound Nos. 1-227
Aphis, which belongs to Homoptera and has a piercing-sucking mouthpart, is a common insect for agricultural plant. Aphis craccivoral was tested by the way of immersing.
Test method: exactly weighed various samples were independently added to N,N-dimethylformamide to form a 10 g/L stock solution. The mixture was diluted with 0.2 mL/L aqueous Triton X-100 solution to a concentration of 500 ug/mL. After stably sucking on bean sprout, the adult aphis without wings together with bean sprout was dipped into 500 ug/mL dilution, taken out after 5 seconds, and the excess dilution was sucked out with bibulous paper and the adult aphis without wings was incubated in clean vessel at a constant temperature of 23° C. Each concentration was repeated for 3 times and the control group contained 0.2 mL/L aqueous Triton X-100 solution. The number of killed aphis was counted after 24 hours to calculate the mortality.

Nilaparvata lugens = test: Insecticidal activity against Nilaparvata lugens (planthopper) by spraying; assay type: in vivo; settings: for mortality (%) (500 ppm) Nilaparvata lugens: spraying 2 ml, counted after 24 hours; for mortality at 500 ppm: Nilaparvata lugens, 24 h, read-out: mortality (%) (500 ppm) Nilaparvata lugens
Experimental: as §1
Planthopper, which belongs to Homoptera and has a piercing-sucking mouthpart, is a common insect for agricultural plant. Nilaparvata lugens was tested by the way of spraying.
Test method: the test compound was exactly formulated into a solution having a certain concentration and clean water was used as a blank control. Each process was repeated for 3 tumblers (3 times). 2 ml of solution was sprayed uniformly to each tumbler by a mini manual sprayer. 10 Nilaparvata lugens were introduced to every sink 6 hours before spraying. Three series of experiments were conducted. The number of killed Nilaparvata lugens was counted after 24 hours to calculate the mortality.

SMILES | mortality (%) (500 ppm) Aphis (Aphis craccivoral) | mortality (%) (500 ppm) Nilaparvata lugens (Nilaparvata lugens) | mortality at 500 ppm (Aphis craccivoral) | mortality at 500 ppm (Nilaparvata lugens)
CCC(C)OC1CCC([N+](=O)[O-])=C2N(Cc3cnc(Cl)s3)CCN21 (mixture of isomers) [Compound 33] | 24% | 56% | – | –
CCCC(C)OC1CCC([N+](=O)[O-])=C2N(Cc3cnc(Cl)s3)CCN21 (mixture of isomers) [Compound 38] | 35% | 67% | – | –
CC(C)(C)COC1CCC([N+](=O)[O-])=C2N(Cc3ccc(Cl)nc3)CCN21 (racemic) [Compound 17] | 100% | 100% | – | –
O=[N+]([O-])C1=C2N(Cc3ccc(Cl)nc3)CCN2C(OC2CCCCC2)CC1 (racemic) [Compound 18] | 23% | 67% | – | –
C=CCOC1CCC([N+](=O)[O-])=C2N(Cc3ccc(Cl)nc3)CCN21 (racemic) [Compound 19] | 35% | 78% | – | –
C#CCOC1CCC([N+](=O)[O-])=C2N(Cc3ccc(Cl)nc3)CCN21 (racemic) [Compound 20] | 39% | 56% | – | –
COCCOC1CCC([N+](=O)[O-])=C2N(Cc3ccc(Cl)nc3)CCN21 (racemic) [Compound 21] | 100% | 100% | – | –
CCOCCOC1CCC([N+](=O)[O-])=C2N(Cc3ccc(Cl)nc3)CCN21 (racemic) [Compound 22] | 100% | 100% | – | –
O=[N+]([O-])C1=C2N(Cc3cnc(Cl)s3)CCN2C(O)CC1 (racemic) [Compound 23] | 87% | 100% | – | –
COC1CCC([N+](=O)[O-])=C2N(Cc3cnc(Cl)s3)CCN21 (racemic) [Compound 24] | 100% | 100% | – | –
CCOC1CCC([N+](=O)[O-])=C2N(Cc3cnc(Cl)s3)CCN21 (racemic) [Compound 25] | 100% | 100% | – | –
O=[N+]([O-])C1=C2N(Cc3cnc(Cl)s3)CCN2C(OCCCl)CC1 (racemic) [Compound 26] | 26% | 64% | – | –
O=[N+]([O-])C1=C2N(Cc3cnc(Cl)s3)CCN2C(OCC(F)(F)F)CC1 (racemic) [Compound 27] | 100% | 100% | – | –
CCCOC1CCC([N+](=O)[O-])=C2N(Cc3cnc(Cl)s3)CCN21 (racemic) [Compound 28] | 100% | 100% | – | –
CC(C)OC1CCC([N+](=O)[O-])=C2N(Cc3cnc(Cl)s3)CCN21 (racemic) [Compound 29] | 100% | 100% | – | –
O=[N+]([O-])C1=C2N(Cc3cnc(Cl)s3)CCN2C(OC(C(F)(F)F)C(F)(F)F)CC1 (racemic) [Compound 30] | 58% | 98% | – | –
CCCCOC1CCC([N+](=O)[O-])=C2N(Cc3cnc(Cl)s3)CCN21 (racemic) [Compound 31] | 56% | 35% | – | –
CC(C)COC1CCC([N+](=O)[O-])=C2N(Cc3cnc(Cl)s3)CCN21 (racemic) [Compound 32] | 37% | 23% | – | –
CC(C)(C)OC1CCC([N+](=O)[O-])=C2N(Cc3cnc(Cl)s3)CCN21 (racemic) [Compound 34] | 100% | 100% | – | –
CC(C)(OC1CCC([N+](=O)[O-])=C2N(Cc3cnc(Cl)s3)CCN21)C(Cl)(Cl)Cl (racemic) [Compound 35] | 98% | 100% | – | –
CCCCCOC1CCC([N+](=O)[O-])=C2N(Cc3cnc(Cl)s3)CCN21 (racemic) [Compound 36] | 34% | 57% | – | –
CC(C)CCOC1CCC([N+](=O)[O-])=C2N(Cc3cnc(Cl)s3)CCN21 (racemic) [Compound 37] | 56% | 64% | – | –
CC(C)(C)COC1CCC([N+](=O)[O-])=C2N(Cc3cnc(Cl)s3)CCN21 (racemic) [Compound 39] | 24% | 35% | – | –
O=[N+]([O-])C1=C2N(Cc3cnc(Cl)s3)CCN2C(OC2CCCCC2)CC1 (racemic) [Compound 40] | 45% | 67% | – | –
C=CCOC1CCC([N+](=O)[O-])=C2N(Cc3cnc(Cl)s3)CCN21 (racemic) [Compound 41] | 89% | 100% | – | –
O=[N+]([O-])C1=C2N(Cc3ccc(Cl)nc3)CCN2C(O)CC1 (stereo not drawn) [Compound 1] | – | – | 96% | 100%

SMILES | mortality (%) (500 ppm) Aphis (Aphis craccivoral) | mortality (%) (500 ppm) Nilaparvata lugens (Nilaparvata lugens) | mortality at 500 ppm (Aphis craccivoral) | mortality at 500 ppm (Nilaparvata lugens)
COC1CCC([N+](=O)[O-])=C2N(Cc3ccc(Cl)nc3)CCN21 (stereo not drawn) [Compound 2] | – | – | 100% | 100%
CCOC1CCC([N+](=O)[O-])=C2N(Cc3ccc(Cl)nc3)CCN21 (stereo not drawn) [Compound 3] | – | – | 100% | 100%
C#CCOC1CCC([N+](=O)[O-])=C2N(Cc3cnc(Cl)s3)CCN21 (stereo not drawn) [Compound 42] | 45% | 100% | – | –
COCCOC1CCC([N+](=O)[O-])=C2N(Cc3cnc(Cl)s3)CCN21 (stereo not drawn) [Compound 43] | 100% | 100% | – | –
CCOCCOC1CCC([N+](=O)[O-])=C2N(Cc3cnc(Cl)s3)CCN21 (stereo not drawn) [Compound 44] | 67% | 100% | – | –
O=[N+]([O-])C1=C2N(CC3CCOC3)CCN2C(O)CC1 (stereo not drawn) [Compound 45] | 56% | 89% | – | –
COC1CCC([N+](=O)[O-])=C2N(CC3CCOC3)CCN21 (stereo not drawn) [Compound 46] | 100% | 100% | – | –
CCOC1CCC([N+](=O)[O-])=C2N(CC3CCOC3)CCN21 (stereo not drawn) [Compound 47] | 45% | 100% | – | –
O=[N+]([O-])C1=C2N(CC3CCOC3)CCN2C(OCCCl)CC1 (stereo not drawn) [Compound 48] | 3% | 0% | – | –
O=[N+]([O-])C1=C2N(CC3CCOC3)CCN2C(OCC(F)(F)F)CC1 (stereo not drawn) [Compound 49] | 45% | 32% | – | –
CCCOC1CCC([N+](=O)[O-])=C2N(CC3CCOC3)CCN21 (stereo not drawn) [Compound 50] | 100% | 100% | – | –
CC(C)OC1CCC([N+](=O)[O-])=C2N(CC3CCOC3)CCN21 (stereo not drawn) [Compound 51] | 34% | 23% | – | –
CCCCOC1CCC([N+](=O)[O-])=C2N(CC3CCOC3)CCN21 (stereo not drawn) [Compound 53] | 9% | 12% | – | –
CC(C)COC1CCC([N+](=O)[O-])=C2N(CC3CCOC3)CCN21 (stereo not drawn) [Compound 54] | 23% | 34% | – | –
CCC(C)OC1CCC([N+](=O)[O-])=C2N(CC3CCOC3)CCN21 (stereo not drawn) [Compound 55] | 45% | 12% | – | –
CC(C)(C)OC1CCC([N+](=O)[O-])=C2N(CC3CCOC3)CCN21 (stereo not drawn) [Compound 56] | 100% | 100% | – | –
CC(C)(OC1CCC([N+](=O)[O-])=C2N(CC3CCOC3)CCN21)C(Cl)(Cl)Cl (stereo not drawn) [Compound 57] | 34% | 38% | – | –
CCCCCOC1CCC([N+](=O)[O-])=C2N(CC3CCOC3)CCN21 (stereo not drawn) [Compound 58] | 34% | 23% | – | –
CCC(C)OC1CCC([N+](=O)[O-])=C2N(CC3CCOC3)CCN21 (stereo not drawn) [Compound 59] | 2% | 3% | – | –
CC(C)CCOC1CCC([N+](=O)[O-])=C2N(CC3CCOC3)CCN21 (stereo not drawn) [Compound 60] | 3% | 5% | – | –
CCCC(C)OC1CCC([N+](=O)[O-])=C2N(CC3CCOC3)CCN21 (stereo not drawn) [Compound 61] | 56% | 89% | – | –
CC(C)(C)COC1CCC([N+](=O)[O-])=C2N(CC3CCOC3)CCN21 (stereo not drawn) [Compound 62] | 12% | 23% | – | –
O=[N+]([O-])C1=C2N(CC3CCOC3)CCN2C(OC2CCCCC2)CC1 (stereo not drawn) [Compound 63] | 2% | 6% | – | –
C=CCOC1CCC([N+](=O)[O-])=C2N(CC3CCOC3)CCN21 (stereo not drawn) [Compound 64] | 37% | 46% | – | –
C#CCOC1CCC([N+](=O)[O-])=C2N(CC3CCOC3)CCN21 (stereo not drawn) [Compound 65] | 47% | 34% | – | –
